Test results taken from patent publication US5888993A, “Vanadium compounds in the treatment of elevated blood sugar levels” (The University of British Columbia, priority 1997, dated 1999).
Values joined by “and” are separate entries in the source; they are usually repeats but may differ in a detail not shown here. Identical values can stand only once.

Experiments:
diabetic rats [1] = experiment: Comparative testing, plasma glucose after oral gavage in STZ diabetic rats; type: in vivo, male wistar rats; conditions: oral gavage 1 mmol/kg
Experimental: Diabetes was induced in all animals by a single intravenous injection of streptozotocin (STZ) 60 mg/kg in 0.9% NaCl via the tail vein. Three days after STZ injection, blood was collected from the tail by nicking the tail tip and expressing the blood into heparinized capillary tubes. Blood was centrifuged at 20,000 g for 10 minutes to separate the plasma. Glucose analysis was done immediately on the plasma sample using a Boehringer Mannheim kit. […] One week after STZ injection animals were randomly divided into 3 pairs of rats. Each pair of rats received by oral gavage 1 mmol/kg of BMOV or VO(Sal)2 or VO(acac)2, suspended in 3% acacia.

rat adipocytes = conditions: in vitro; cited from earlier work
[2] = in vivo; cited from earlier work
red blood cells = conditions: cytoplasm; cited from earlier work
[3] = system: rats made diabetic with streptozoticin (STZ); conditions: oral / drinking water; cited from earlier work
[4] = in vivo; cited from earlier work; remark: listed apart in the source
[5] = cited from earlier work
diabetic rats [6] = experiment: Comparison of BMOV and vanadyl kojate, acute time course of plasma glucose, rats made diabetic with STZ; type: in vivo, rat; set-up: plasma glucose level: unit not given here
Experimental: Using BMOV and Vanadyl Kojate as prepared in Examples 1 and 2 above, the relative efficacy of the two compounds was assessed using rats made diabetic with STZ. Again the animals were divided into responder and non-responder groups. For a 0.063 mmol V/kg ip injection, BMOV gave a 50:50 split between responder and non-responder groups whereas for vanadyl kojate the ratio was 60:40. On oral gavage of 0.55 mmol V/kg the responder:non-responder ratios were 50:50 and 57:43 respectively (n=10). However over a 12 day test period, there was a 100% response in terms of blood glucose reduction for diabetic rats receiving vanadyl kojate orally.

[7] = log p (partition coefficient); type: physicochemical
diabetic rats [8] = experiment: Glucose time course after gavage of ammonium bis(maltolato)dioxovanadate in STZ diabetic rats; type: in vivo, male Wistar rats; conditions: 0.55 mmoles/kg gavage
Experimental: Six male Wistar rats, weighing 175-200 gm, were made diabetic by the intravenous injection of 60 mg/kg of streptozotocin dissolved in 0.9% saline via the tail vein. Seven days after the injection the rats were diabetic having an average glucose concentration of 24.20 mM. 0.55 mmoles/kg of the ammonium salt of bis(maltolato)dioxovanadate suspended in 3% acacia was gavaged into the rats. Blood was collected and analyzed for glucose as a function of time.

STZ-diabetic rats = experiment: Comparison of BMOV and ETHYLBMOV, plasma glucose and insulin in STZ-diabetic rats; type: in vivo, rat; conditions: 0.6 mmol kg^-1, one oral gavage, 24 hour period
Experimental: Animal studies were conducted in STZ-diabetic rats comparing doses of 0.6 mmol kg^-1 for VO(ma)2 (BMOV) and VO(ema)2 (ETHYLVMOV). FIGS. 8 and 9 respectively show plasma glucose and plasma insulin values recorded over 24 hour periods after one oral gavage of a water solution of either BMOV or ETHYLBMOV, in order to compare their efficacies.

Na^+ -K^+ ATPase = conditions: cited from earlier work
Wistar Kyoto (WKY) rats = experiment: Blood pressure study with vanadyl sulphate, normotensive Wistar Kyoto rats; type: in vivo, rat; conditions: for changes in normotensive animals, prevention: WKYV; for effect in Wistar Kyoto rats, reversal: WKYV1, treatment from week 11
Experimental: (§1) The insulin resistant spontaneously hypertensive rat was used as the experiment model and the vanadyl form of vanadium as the experimental intervention. […] Rats, procured at 4 weeks of age, were divided
(§2) into 4 groups: SHR (untreated), SHRV (treated), WKY (untreated), WKYV (treated). Chronic vanadyl sulfate treatment (0.75 mg/ml ad libitum in the drinking water) was started on the SHRV and WKYV groups at 5 weeks of age. After week 8, when hypertension becomes fully manifest in the SHR, weekly measurements of plasma insulin and systolic blood pressure (tail cuff method) were done on all four groups.
(§3) At week 11, the untreated control SHR and WKY groups from the prevention study were further subdivided and half the animals in each group were started on oral vanadyl sulfate treatment. This was done to observe the reversal effects of vanadyl, if any, after the SHR had become hypertensive. […] A direct blood pressure reading done in all groups at termination validated the earlier indirect measurements. Vanadyl sulfate prevented as well as reversed hypertention in the hyperinsulinemic spontaneously hypertensive rat, a model that closely resembles human essential hypertension. Besides establishing further the role that insulin resistance/hyperinsulinemia may play in the development of high blood pressure, this study also indicated a possible therapeutic role for vanadyl sulfate in hypertensive, hyperinsulinemic subjects.

[9] = system: spontaneously hypertensive rats (SHR); experiment: Blood pressure reduction by vanadyl sulphate, spontaneously hypertensive rats; type: in vivo, rat; conditions: for systolic blood pressure / hypertension, prevention: 75-125 mg/kg/day in drinking water
Experimental: as §1, §2, §3

[10] = 0 h, individual rats (two per drug)
[11] = SHRV, 75-125 mg/kg/day, weeks 8-12

## CC(=O)/C=C(/C)[O-].CC(=O)/C=C(/C)[O-].[O]=[V+2] [VO(acac)2, Bis(acetylacetonate)oxovanadium(IV)]
Diabetic rats [1]; [10]
  plasma glucose level: 23.87 mM and 22.74 mM
Diabetic rats [1]; 2 h, individual rats
  plasma glucose level: 22.91 mM and 24.5 mM
Diabetic rats [1]; 4 h, individual rats
  plasma glucose level: 22.37 mM and 22.89 mM
Diabetic rats [1]; 6 h, individual rats
  plasma glucose level: 23.96 mM and 22.94 mM
Diabetic rats [1]; 8 h, individual rats
  plasma glucose level: 27.19 mM and 23.65 mM
Diabetic rats [1]; 12 h, individual rats
  plasma glucose level: 19.13 mM and 18.86 mM
Diabetic rats [1]; 24 h, individual rats
  plasma glucose level: 2.43 mM
Diabetic rats [1]; 24 h, rat 5
  death: dead

## [O]=[V+2] [vanadyl ion]
Rat adipocytes
  insulin-like stimulation of glucose oxidation: insulin-like stimulation of glucose oxidation

## [O]=[V]([O-])([O-])[O-] [vanadate]
[2]
  absorption from the gastrointestinal tract: poorly absorbed
Red blood cells
  reduction of vanadate in red blood cells: reduced to vanadium (IV)
[3]
  blood glucose: decreased the elevated blood glucose
  cardiac performance / secondary complications of diabetes: prevented the depression of cardiac performance
[4]
  toxicity: toxic
[5]
  in vivo reduction: reduced in vivo to vanadyl

## O=Cc1ccccc1[O-].O=Cc1ccccc1[O-].[O]=[V+2] [VO(Sal)2, Bis(salicylaldehyde)oxovanadium(IV)]
Diabetic rats [1]; [10]
  plasma glucose level: 21.09 mM and 21.12 mM
Diabetic rats [1]; 2 h, individual rats
  plasma glucose level: 22.77 mM and 22.31 mM
Diabetic rats [1]; 4 h, individual rats
  plasma glucose level: 20.18 mM and 21.74 mM
Diabetic rats [1]; 6 h, individual rats
  plasma glucose level: 20.67 mM and 21.85 mM
Diabetic rats [1]; 8 h, individual rats
  plasma glucose level: 21.57 mM and 21.59 mM
Diabetic rats [1]; 12 h, individual rats
  plasma glucose level: 19.24 mM and 19.74 mM
Diabetic rats [1]; 24 h, individual rats
  plasma glucose level: 18.73 mM and 18.64 mM

## [O]=[V-2]12([O]C3=COC(CO)=CC3=[O+]1)[O]C1=COC(CO)=CC1=[O+]2 [vanadyl kojate, Bis(kojato)oxovanadium(IV)]
Diabetic rats [6]; i.p. 0.063 mmol/kg, nonresponders (DTN), 0 h
  plasma glucose level: 20.86
Diabetic rats [6]; i.p. 0.063 mmol/kg, nonresponders (DTN), 1 h
  plasma glucose level: 18.55
Diabetic rats [6]; i.p. 0.063 mmol/kg, nonresponders (DTN), 2 h
  plasma glucose level: 16.62
Diabetic rats [6]; i.p. 0.063 mmol/kg, nonresponders (DTN), 4 h
  plasma glucose level: 17.37
Diabetic rats [6]; i.p. 0.063 mmol/kg, nonresponders (DTN), 6 h
  plasma glucose level: 16.62
Diabetic rats [6]; i.p. 0.063 mmol/kg, nonresponders (DTN), 8 h
  plasma glucose level: 15.49
Diabetic rats [6]; i.p. 0.063 mmol/kg, nonresponders (DTN), 12 h
  plasma glucose level: 18.24
Diabetic rats [6]; i.p. 0.063 mmol/kg, nonresponders (DTN), 24 h
  plasma glucose level: 18.77
Diabetic rats [6]; i.p. 0.063 mmol/kg, responders (DTR), 0 h
  plasma glucose level: 17.94
Diabetic rats [6]; i.p. 0.063 mmol/kg, responders (DTR), 1 h
  plasma glucose level: 14.75
Diabetic rats [6]; i.p. 0.063 mmol/kg, responders (DTR), 2 h
  plasma glucose level: 10.17
Diabetic rats [6]; i.p. 0.063 mmol/kg, responders (DTR), 4 h
  plasma glucose level: 9.26
Diabetic rats [6]; i.p. 0.063 mmol/kg, responders (DTR), 6 h
  plasma glucose level: 8.73
Diabetic rats [6]; i.p. 0.063 mmol/kg, responders (DTR), 8 h
  plasma glucose level: 7.4
Diabetic rats [6]; i.p. 0.063 mmol/kg, responders (DTR), 12 h
  plasma glucose level: 10.37
Diabetic rats [6]; i.p. 0.063 mmol/kg, responders (DTR), 24 h
  plasma glucose level: 13.28
Diabetic rats [6]; oral gavage 0.55 mmol/kg, nonresponders (DTN), 0 h
  plasma glucose level: 23.08
Diabetic rats [6]; oral gavage 0.55 mmol/kg, nonresponders (DTN), 1 h
  plasma glucose level: 21.18
Diabetic rats [6]; oral gavage 0.55 mmol/kg, nonresponders (DTN), 2 h
  plasma glucose level: 21.51
Diabetic rats [6]; oral gavage 0.55 mmol/kg, nonresponders (DTN), 4 h
  plasma glucose level: 20.57
Diabetic rats [6]; oral gavage 0.55 mmol/kg, nonresponders (DTN), 6 h
  plasma glucose level: 18.2
Diabetic rats [6]; oral gavage 0.55 mmol/kg, nonresponders (DTN), 8 h
  plasma glucose level: 19.06
Diabetic rats [6]; oral gavage 0.55 mmol/kg, nonresponders (DTN), 12 h
  plasma glucose level: 18.81
Diabetic rats [6]; oral gavage 0.55 mmol/kg, nonresponders (DTN), 24 h
  plasma glucose level: 25.0
Diabetic rats [6]; oral gavage 0.55 mmol/kg, responders (DTR), 0 h
  plasma glucose level: 15.75
Diabetic rats [6]; oral gavage 0.55 mmol/kg, responders (DTR), 1 h
  plasma glucose level: 12.5
Diabetic rats [6]; oral gavage 0.55 mmol/kg, responders (DTR), 2 h
  plasma glucose level: 10.1
Diabetic rats [6]; oral gavage 0.55 mmol/kg, responders (DTR), 4 h
  plasma glucose level: 7.96
Diabetic rats [6]; oral gavage 0.55 mmol/kg, responders (DTR), 6 h
  plasma glucose level: 6.6
Diabetic rats [6]; oral gavage 0.55 mmol/kg, responders (DTR), 8 h
  plasma glucose level: 6.87
Diabetic rats [6]; oral gavage 0.55 mmol/kg, responders (DTR), 12 h
  plasma glucose level: 6.01
Diabetic rats [6]; oral gavage 0.55 mmol/kg, responders (DTR), 24 h
  plasma glucose level: 6.74
Diabetic rats [6]; oral, 12 day test period
  food and fluid demand: significantly reduced
  response in terms of blood glucose reduction: 100%
[7]
  log p: 0.012

## Cc1occc(=O)c1[O-].Cc1occc(=O)c1[O-].[NH4+].[O]=[V+]=[O] [Ammonium bis(maltolato)dioxovanadate]
Diabetic rats [8]
  reduction of elevated glucose levels, in words: effective in reducing the elevated glucose levels
Diabetic rats [8]; 0 h
  Glucose: 24.2 mM
Diabetic rats [8]; 1 h
  Glucose: 24.4 mM
Diabetic rats [8]; 2 h
  Glucose: 25.5 mM
Diabetic rats [8]; 4 h
  Glucose: 24.7 mM
Diabetic rats [8]; 8 h
  Glucose: 22.3 mM
Diabetic rats [8]; 12 h
  Glucose: 20.1 mM
Diabetic rats [8]; 24 h
  Glucose: 14.9 mM

## Bis(ethylmaltolato)oxovanadium(IV) [ETHYLBMOV]
STZ-diabetic rats
  plasma glucose, difference BMOV vs ETHYLBMOV: statistically insignificant
  plasma insulin, difference BMOV vs ETHYLBMOV: statistically insignificant

## [Na+].[Na+].[Na+].[O]=[V]([O-])([O-])[O-] [Sodium orthovanadate]
Na^+ -K^+ ATPase
  inhibition of Na^+ -K^+ ATPase: potent inhibitor

## O=S(=O)([O-])[O-].[O]=[V+2] [vanadyl sulfate]
[2]
  absorption from the gastrointestinal tract: poorly absorbed
Wistar Kyoto (WKY) rats
  changes in normotensive animals, prevention: No changes were seen
  effect in Wistar Kyoto rats, reversal: no effect
Wistar Kyoto (WKY) rats; listed as vanadyl
  effect in Wistar Kyoto rats, reversal: no effect is observed
  changes in normotensive animals, prevention: No change is observed
Wistar Kyoto (WKY) rats; normal animals
  adverse effect on normal animals (hypotension): no adverse effect on normal animals
[3]
  blood glucose: lowers blood glucose and blood lipids
  cardiac performance / secondary complications of diabetes: prevents secondary complications of diabetes such as cataracts and cardiac dysfunction
[4]
  toxicity: less toxic than the vanadate form of vanadium
[9]; SHRV1, treatment from week 11
  hypertension / blood pressure, reversal: reversed hypertension
  plasma insulin, reversal: lowering their plasma insulin to control values
[9]; SHRV1, treatment from week 11, listed as vanadyl
  hypertension / blood pressure, reversal: reduce the blood pressure
[9]; SHRV, weeks 8-12
  systolic blood pressure / hypertension, prevention: lowered both plasma insulin and systolic blood pressure
[9]; SHRV, weeks 8-12, listed as vanadyl
  systolic blood pressure / hypertension, prevention: prevents the onset of hypertension
[9]; [11]
  plasma glucose levels: without causing any change in the plasma glucose levels
  plasma insulin, prevention: lowered both plasma insulin and systolic blood pressure
[9]; treated animals, 75-125 mg/kg/day, entire experimental period
  gastrointestinal, renal or hepatic toxicity: No gastrointestinal, renal or hepatic toxicity
